Experimental data from patent US20240139280A1, “USE OF HIF-1-ALPHA INHIBITORS IN CANCER IMMUNOTHERAPY” (ONCOC4, INC., priority 2021, published 2024).

Columns and labels:
[1] = test system: E0771 tumor microenvironment; assay: Flow cytometry of dissociated E0771 tumors (tumor cells, myeloid cells, TILs); format: in vivo, C57BL/6 mice
[2] = test system: PD-L1 expression in 4T1 cells; assay: PD-L1 expression in 4T1 cells by flow cytometry; format: cell-based, murine; settings: normoxia, echinomycin 0.45 nM, 48 hours
[3] = test system: MC38 tumor; assay: MC38 tumor growth in mice; format: in vivo; settings: echinomycin 0.15 mg/kg
Protocol: FIGS. 3A-D show the therapeutic effects of echinomycin on tumor growth in immunodeficient and immunocompetent mice. FIG. 3A. Experimental design. Three murine tumor lines were tested: 4T1, E0771, or MC38. For each, immunodeficient and immunocompetent mice were inoculated (day 0), and treatment was initiated with control liposomes (vehicle) or echinomycin liposomes (LEM) on day 6, indicated by arrows in FIGS. 3B-3D. The kinetics of tumor growth were compared to deduce the role of adaptive immunity in the therapeutic effects of echinomycin. FIG. 3B. 4T1 cells (1×10^6) were transplanted into mammary fat pad of NSG and BALB/c mice, which received vehicle or echinomycin (0.15 mg/kg) (arrows). Mean tumor volumes±SEM are shown for one of two independent experiments (n=10/group). FIG. 3C. Kinetics of E0771 tumor growth. E0771 cells (0.7×10^6) were transplanted into mammary fat pad of NSG and C57BL/6 mice, which received vehicle or echinomycin (0.25 mg/kg) (arrows). Mean tumor volumes±SEM are shown for one of two independent experiments (n=5/group). FIG. 3D. Kinetics of MC38 tumor growth. […]
Tumor Models The details of each experiment are specified in the figure legends. […] Tumor volumes were calculated and reported based on the formula […], where a is the longer diameter, and b is the shorter diameter. […]

Q: What does the source list for `CSC1SC[C@H]2C(=O)N(C)[C@@H](C(C)C)C(=O)OC[C@@H](NC(=O)c3cnc4ccccc4n3)C(=O)N[C@@H](C)C(=O)N(C)[C@@H]1C(=O)N(C)[C@@H](C(C)C)C(=O)OC[C@@H](NC(=O)c1cnc3ccccc3n1)C(=O)N[C@@H](C)C(=O)N2C` (stereo in doubt) [echinomycin, N,N′-(2,4,12,15,17,25-hexamethyl-11,24-bis(1-methylethyl)-27-(methylthio)-3,6,10,13,16,19,23,26-octaoxo-9,22-dioxa-28-thia-2,5,12,15,18,25-hexaazabicyclo(12.12.3)nonacosane-7,20-diyl)bis(2-quinoxalinecarboxamide)]?
A: inhibition of PD-L1 on tumor cells in mice with conditional knockout of Hif1α in T cells ([1]; Hif1α conditional knockout in T lineages): preserved; CD3 TIL infiltration into hypoxic areas of the tumors ([1]; echinomycin-treated mice): increase in CD3 TIL infiltration into hypoxic areas; PD-L1 protein [2]: reduced PD-L1 protein; MC38 tumor growth, combination study ([3]; C57BL/6, mAbs 0.2 mg/mouse/injection, vs vehicle): significant inhibition of tumor growth; MC38 tumor growth ([3]; C57BL/6 vs NSG): all therapeutic effects required immune competence
